Data taken from patent US20220023258A1, “METHODS OF TREATING CONDITIONS RELATED TO THE S1P1 RECEPTOR” (Arena Pharmaceuticals, Inc., priority 2018, published 2022).
Entries after “also recorded” stand apart in the source; their conditions may differ. Where a name gives a salt, the structure may show the parent alone.

What was measured:
healthy adult subjects [1] = assay: Multiple ascending dose study: heart rate, blood pressure, QTc; format: in vivo, human; conditions: Day 1 to Day 28
Protocol: (§1) A randomized, double-blind, placebo-controlled, sequential, ascending, multiple dose study to assess the safety, tolerability, and pharmacokinetics of the L-arginine salt of Compound 1 administered to healthy adult subjects was conducted. This study was designed to evaluate the safety, tolerability, pharmacokinetics, and pharmacodynamics of the L-arginine salt of Compound 1.
(§2) Cohort 1 was dosed with 0.7 mg (by administering two 0.35 mg formulations) for 21 days. Cohort 2 was dosed with 1.35 mg (by administering both a 0.35 mg formulation and a 1 mg formulation) for 21 days. Cohort 3 was dosed with 2.0 mg for 21 days. Cohort 4 was dosed with 0.35 mg for 7 days and then with 2.0 mg for 14 days. Cohort 5 was dosed with 0.5 for 7 days and then with 3.0 mg (by administering both a 1 mg formulation and a 2 mg formulation) for 14 days.
(§3) The following safety assessments were conducted: physical examinations with ophthalmoscopy, clinical laboratory tests (serum chemistry, coagulation, and urinalysis), vital signs, continuous telemetry (12 lead ECG), safety ECGs, pulmonary function testing (PFT), serum protein electrophoresis (SPEP) and serum immunoelectrophoresis (IEP), and adverse event reporting.

[2] = tested on: patients with ulcerative colitis; assay: Dose-ranging study in ulcerative colitis: Mayo scores, endoscopic improvement, remission; format: in vivo, human; conditions: for improvement in 2-component Mayo Score relative to placebo / improvement in Total Mayo Score relative to placebo: Week 12; for proportion of patients achieving clinical remission, defined by the 3-component Mayo Score / improvement in 3-component Partial Mayo Score relative to placebo / patients who achieved endoscopic improvement: week 12
Excerpt: The treatment formulation was composed of immediate-release, hard gelatin capsules containing L-arginine salt of Compound 1. The placebo was composed of hard gelatin capsules containing microcrystalline cellulose. […] The primary objective of this proof-of-concept study was to determine the effect of treatment with the L-arginine salt of Compound 1 in changing 3-component Mayo Clinic score (score ranging from 0 to 9, including stool frequency, rectal bleeding and findings on endoscopy) at 12 weeks. […] ANCOVA model, adjusted for current oral corticosteroid use, prior exposure to TNF-alpha antagonists, and baseline value, was used to estimate changes in Mayo Clinic Score. Mantel-Haenszel method (estimated treatment difference by adjusting current oral corticosteroid use and prior exposure to TNF-alpha antagonists) used to estimate proportion difference for dichotomous parameters. Missing individual Mayo subscores impacting efficacy measures were imputed using multiple imputation methodology with observed case analysis for sensitivity. […] Hierarchical closed testing procedure for primary and secondary endpoints at 0.05 alpha level was used.

lymphocytes = assay: Multiple ascending dose study: lymphocyte counts; format: in vivo, human; conditions: for Lymphocytes On Treatment Mean (SD) / Lymphocytes Percent Change from Baseline Mean / Lymphocytes Percent Change from Baseline Median / Lymphocytes Percent Change from Baseline Min, Max: day 21
Protocol: as §1, §2

healthy adult subjects [3] = assay: Multiple ascending dose study: safety and tolerability
Protocol: as §3

[4] = tested on: patients with ulcerative colitis; assay: Fecal calprotectin and C-reactive protein in ulcerative colitis study; format: in vivo, human
Protocol: The modified Mayo Clinic score (modified MCS) included endoscopic, rectal bleeding (RB), and stool frequency (SF) subscores. […] Endoscopic improvement was defined as a subscore ≤1. […] Comparisons between subgroups were assessed with a Wilcoxon rank-sum test (2-sided P values). Analysis of correlation between variables was conducted using the Spearman's rank coefficient (2-sided P values).

[5] = 0.35 mg for 7 days then 2.0 mg for 14 days
[6] = 0.5 mg for 7 days then 3.0 mg for 14 days

## O=C(O)C[C@H]1CCc2c1[nH]c1ccc(OCc3ccc(C4CCCC4)c(C(F)(F)F)c3)cc21 [L-arginine salt of Compound 1]
Healthy adult subjects [1]; 1.35 mg for 21 days
  Minimum post-dose Systolic BP, Change from Baseline Min, Max: −22.00 to 3.00 mmHg
  Minimum post-dose Systolic BP, On Treatment Mean: 100.10 mmHg
Healthy adult subjects [1]; 2.0 mg for 21 days
  Minimum post-dose Diastolic BP, Change from Baseline Mean: −11.20 mmHg
  Minimum post-dose Diastolic BP, Change from Baseline Median: −9.00 mmHg
  Minimum post-dose Diastolic BP, Change from Baseline Min, Max: −21.00 to −4.00 mmHg
  Minimum post-dose Diastolic BP, On Treatment Mean (SD): 45.30 (7.42) mmHg
  Minimum post-dose Heart Rate, Change from Baseline Mean: −8.30 BPM
  Minimum post-dose Heart Rate, Change from Baseline Median: −7.50 BPM
  Minimum post-dose Heart Rate, Change from Baseline Min, Max: −16.00 to −3.00 BPM
  Minimum post-dose Heart Rate, On Treatment Mean (SD): 51.00 (4.78) BPM
  Minimum post-dose Systolic BP, Change from Baseline Mean: −9.80 mmHg
  Minimum post-dose Systolic BP, Change from Baseline Median: −9.00 mmHg
  Minimum post-dose Systolic BP, Change from Baseline Min, Max: −18.00 to −4.00 mmHg
  Minimum post-dose Systolic BP, On Treatment Mean: 90.80 mmHg
[2]; 1 mg q.d., p=0.086
  improvement in 2-component Mayo Score relative to placebo: 0.39
[2]; 1 mg q.d., p=0.128
  improvement in Total Mayo Score relative to placebo: 0.60
[2]; 1 mg q.d., p=0.136
  proportion of patients achieving clinical remission, defined by the 3-component Mayo Score: 16.0%
[2]; 1 mg q.d., p=0.146
  improvement in 3-component Partial Mayo Score relative to placebo: 0.43
[2]; 1 mg q.d., p=0.306
  patients who achieved endoscopic improvement: 22.5%
[2]; 1 mg q.d., p=0.077
  Remission defined by the 4-component Total Mayo Score: 15.4%
[2]; 2 mg q.d., p=0.010
  improvement in Total Mayo Score relative to placebo: 1.27
[2]; 2 mg q.d., p<0.001 vs placebo 8.1%
  proportion of patients achieving clinical remission, defined by the 3-component Mayo Score: 33.0%
[2]; 2 mg q.d., p=0.003 vs placebo 17.8%
  patients who achieved endoscopic improvement: 41.8%
[2]; 2 mg q.d., p=0.009
  improvement in 3-component Partial Mayo Score relative to placebo: 0.99
[2]; dose not printed in sentence (high dose), p=0.002
  improvement in 2-component Mayo Score relative to placebo: 0.84
[2]; dose not printed in sentence (high dose), p=0.004 vs placebo 6.0%
  Remission defined by the 4-component Total Mayo Score: 24.5%
lymphocytes; [5]
  Lymphocytes On Treatment Mean (SD): 0.62 (0.18) 10^3/μl
  Lymphocytes Percent Change from Baseline Mean: −67.34%
  Lymphocytes Percent Change from Baseline Median: −67.54%
  Lymphocytes Percent Change from Baseline Min, Max: −77.27 to −57.14%
lymphocytes; [6]
  Lymphocytes On Treatment Mean (SD): 0.62 (0.25) 10^3/μl
  Lymphocytes Percent Change from Baseline Mean: −66.16%
  Lymphocytes Percent Change from Baseline Median: −65.02%
  Lymphocytes Percent Change from Baseline Min, Max: −85.19 to −53.85%
lymphocytes; 0.7 mg for 21 days
  Lymphocytes On Treatment Mean (SD): 1.06 (0.28) 10^3/μl
  Lymphocytes Percent Change from Baseline Mean: −41.03%
  Lymphocytes Percent Change from Baseline Median: −40.37%
  Lymphocytes Percent Change from Baseline Min, Max: −55.56 to −23.08%
lymphocytes; 1.35 mg for 21 days
  Lymphocytes On Treatment Mean (SD): 0.89 (0.32) 10^3/μl
  Lymphocytes Percent Change from Baseline Mean: −53.43%
  Lymphocytes Percent Change from Baseline Median: −51.85%
  Lymphocytes Percent Change from Baseline Min, Max: −68.75 to −30.77%
lymphocytes; 2.0 mg for 21 days
  Lymphocytes On Treatment Mean (SD): 0.62 (0.18) 10^3/μl
  Lymphocytes Percent Change from Baseline Mean: −68.81%
  Lymphocytes Percent Change from Baseline Median: −69.44%
  Lymphocytes Percent Change from Baseline Min, Max: −80.00 to −55.56%
lymphocytes; multiple dosing 21 days
  dose with maximal effect on lymphocyte lowering (dose-dependent): 2 mg
Healthy adult subjects [3]; 1.35 mg dose
  mildly abnormal reproducible (NCS) pulmonary function test findings (FEV1 below 80%, FVC) post-dose: One subject
Healthy adult subjects [3]; 2 mg group
  subjects who developed new 1″ degree atrioventricular block: 1 subject
  subjects with mildly abnormal post-treatment liver function tests (ALT & AST >2× ULN): 1 subject
Healthy adult subjects [3]; 0.5, 3 mg group
  subjects who developed new 1″ degree atrioventricular block: 1 subject
Healthy adult subjects [3]; 0.5 escalating to 3 mg group
  subjects with mildly abnormal post-treatment liver function tests (ALT & AST >2× ULN): 1 subject
Healthy adult subjects [3]; all dose levels
  SAEs or deaths: No SAEs or deaths occurred
  ophthalmoscopy findings: No clinically significant change from baseline
  other safety issues (vital signs, ECGs, PFTs, ophthalmoscopy, clinical laboratory tests): no other clinically significant safety issues
  second degree heart block: No second degree heart block was found
  subjects discontinued due to an adverse event: No subjects were discontinued due to an adverse event
Healthy adult subjects [3]; all dose levels, 21 days
  most common adverse events: contact dermatitis and leukopenia, followed by constipation, diarrhea, nausea, and abdominal pain
  severity of adverse events: majority of adverse events were mild
  tolerability: tolerated at all dose levels; also recorded: well tolerated at all doses tested
[4]; 1 mg, did not reach statistical significance, P=0.08
  decrease in FC versus placebo across the study: 0.71
[4]; 1 mg, mixed-model for repeat measures, P=0.02
  decrease in CRP compared with placebo across the study: 0.72
[4]; 2 mg
  median FC at week 12, patients who did not achieve remission: 1129 µg/g
[4]; 2 mg, P<0.001 vs no remission
  median FC at week 12, patients who achieved remission: 62.0 µg/g
[4]; 2 mg, mixed-model for repeat measures, P<0.001
  decrease in FC compared with placebo across the study: 0.42
[4]; 2 mg, mixed-model for repeat measures, P=0.01
  decrease in CRP compared with placebo across the study: 0.70
[4]; 2 mg, sustained through week 12
  time at which decreases in FC and CRP levels versus placebo were first observed: 4 week
